Assay: Stability of cannabinoid compounds and Vitamin E components in Beverage 1 (AB White) by LCMSMS
Format: physicochemical

Question: Which results are given for CC(=O)Oc1c(C)c(C)c2c(c1C)CCC(C)(CCC[C@H](C)CCC[C@H](C)CCCC(C)C)O2 (stereo partly drawn) [α-Tocopheryl acetate]?
Answer: Stability of Vitamin Es in AB White (stored at 8° C., 0 days): 12.3 µg/mL; Stability of Vitamin Es in AB White (stored at 8° C., 1 days): 12.04 µg/mL; Stability of Vitamin Es in AB White (stored at 8° C., 2 days): 12.47 µg/mL; Stability of Vitamin Es in AB White (stored at 8° C., 3 days): 11.99 µg/mL; Stability of Vitamin Es in AB White (stored at 8° C., 5 days): 11.61 µg/mL; Stability of Vitamin Es in AB White (stored at 8° C., 8 days): 12.48 µg/mL; Stability of Vitamin Es in AB White (stored at 8° C., 9 days): 11.88 µg/mL; Stability of Vitamin Es in AB White (stored at 8° C., 10 days): 12.13 µg/mL; Stability of Vitamin Es in AB White (stored at 8° C., 11 days): 11.83 µg/mL; Stability of Vitamin Es in AB White (stored at 8° C., 12 days): 12.31 µg/mL; Stability of Vitamin Es in AB White (stored at 8° C., 15 days): 12.42 µg/mL; Stability of Vitamin Es in AB White (stored at 8° C., 16 days): 11.35 µg/mL; Stability of Vitamin Es in AB White (stored at 8° C., 17 days): 11.49 µg/mL; Stability of Vitamin Es in AB White (stored at 8° C., 18 days): 11.83 µg/mL; Stability of Vitamin Es in AB White (stored at 8° C., 19 days): 12.41 µg/mL; Stability of Vitamin Es in AB White (stored at 8° C., 22 days): 11.27 µg/mL; Stability of Vitamin Es in AB White (stored at 8° C., 23 days): 11.93 µg/mL; Stability of Vitamin Es in AB White (stored at 8° C., 24 days): 12.02 µg/mL; Stability of Vitamin Es in AB White (stored at 8° C., 25 days): 12.24 µg/mL; Stability of Vitamin Es in AB White (stored at 8° C., 26 days): 12.03 µg/mL; Stability of Vitamin Es in AB White (stored at 8° C., 29 days): 11.40 µg/mL; Stability of Vitamin Es in AB White (stored at 8° C., 30 days): 12.07 µg/mL; Stability of Vitamin Es in AB White (stored at 8° C., 60 days): 12.05 µg/mL; Stability of Vitamin Es in AB White (stored at 8° C., 90 days): 11.13 µg/mL; Stability of Vitamin Es in AB White (stored at 8° C., 120 days): 11.80 µg/mL; Stability of Vitamin Es in AB White (stored at 8° C., 150 days): 11.89 µg/mL; Stability of Vitamin Es in AB White (stored at 8° C., 180 days): 11.48 µg/mL; Stability of Vitamin Es in AB White (stored at 8° C., 210 days): 11.21 µg/mL; Stability of Vitamin Es in AB White (stored at 8° C., 240 days): 11.06 µg/mL; Stability of Vitamin Es in AB White (stored at 8° C., 270 days): 11.21 µg/mL; Stability of Vitamin Es in AB White (stored at 8° C., 300 days): 11.37 µg/mL; Stability of Vitamin Es in AB White (stored at 8° C., 330 days): 11.28 µg/mL; Stability of Vitamin Es in AB White (stored at 8° C., 360 days): 11.12 µg/mL; Stability of Vitamin Es in AB White (stored at 8° C., 390 days): 11.00 µg/mL; Stability of Vitamin Es in AB White (stored at 8° C., 420 days): 11.06 µg/mL; Stability of Vitamin Es in AB White (stored at 8° C., 450 days): 10.89 µg/mL; Stability of Vitamin Es in AB White (stored at 8° C., 480 days): 10.76 µg/mL; Stability of Vitamin Es in AB White (stored at 8° C., 510 days): 10.76 µg/mL; Stability of Vitamin Es in AB White (stored at 8° C., 540 days): 10.49 µg/mL; Stability of Vitamin Es in AB White (stored at 8° C., 570 days): 10.42 µg/mL; Stability of Vitamin Es in AB White (stored at 21-25° C., 0 days): 12.3 µg/mL; Stability of Vitamin Es in AB White (stored at 21-25° C., 1 days): 12.2 µg/mL; Stability of Vitamin Es in AB White (stored at 21-25° C., 2 days): 12.3 µg/mL; Stability of Vitamin Es in AB White (stored at 21-25° C., 3 days): 11.8 µg/mL; Stability of Vitamin Es in AB White (stored at 21-25° C., 5 days): 12.0 µg/mL; Stability of Vitamin Es in AB White (stored at 21-25° C., 8 days): 12.4 µg/mL; Stability of Vitamin Es in AB White (stored at 21-25° C., 9 days): 12.2 µg/mL; Stability of Vitamin Es in AB White (stored at 21-25° C., 10 days): 11.8 µg/mL; Stability of Vitamin Es in AB White (stored at 21-25° C., 11 days): 11.7 µg/mL; Stability of Vitamin Es in AB White (stored at 21-25° C., 12 days): 11.6 µg/mL; Stability of Vitamin Es in AB White (stored at 21-25° C., 15 days): 11.4 µg/mL; Stability of Vitamin Es in AB White (stored at 21-25° C., 16 days): 12.3 µg/mL; Stability of Vitamin Es in AB White (stored at 21-25° C., 17 days): 11.2 µg/mL; Stability of Vitamin Es in AB White (stored at 21-25° C., 18 days): 11.9 µg/mL; Stability of Vitamin Es in AB White (stored at 21-25° C., 19 days): 11.4 µg/mL; Stability of Vitamin Es in AB White (stored at 21-25° C., 22 days): 11.3 µg/mL; Stability of Vitamin Es in AB White (stored at 21-25° C., 23 days): 11.9 µg/mL; Stability of Vitamin Es in AB White (stored at 21-25° C., 24 days): 11.8 µg/mL; Stability of Vitamin Es in AB White (stored at 21-25° C., 25 days): 11.3 µg/mL; Stability of Vitamin Es in AB White (stored at 21-25° C., 26 days): 11.6 µg/mL; Stability of Vitamin Es in AB White (stored at 21-25° C., 29 days): 12.1 µg/mL; Stability of Vitamin Es in AB White (stored at 21-25° C., 30 days): 12.1 µg/mL; Stability of Vitamin Es in AB White (stored at 21-25° C., 60 days): 12.1 µg/mL; Stability of Vitamin Es in AB White (stored at 21-25° C., 90 days): 12.0 µg/mL; Stability of Vitamin Es in AB White (stored at 21-25° C., 120 days): 11.4 µg/mL; Stability of Vitamin Es in AB White (stored at 21-25° C., 150 days): 11.9 µg/mL; Stability of Vitamin Es in AB White (stored at 21-25° C., 180 days): 11.2 µg/mL; Stability of Vitamin Es in AB White (stored at 21-25° C., 210 days): 11.1 µg/mL; Stability of Vitamin Es in AB White (stored at 21-25° C., 240 days): 10.8 µg/mL; Stability of Vitamin Es in AB White (stored at 21-25° C., 270 days): 11.0 µg/mL; Stability of Vitamin Es in AB White (stored at 21-25° C., 300 days): 11.2 µg/mL; Stability of Vitamin Es in AB White (stored at 21-25° C., 330 days): 11.3 µg/mL; Stability of Vitamin Es in AB White (stored at 21-25° C., 360 days): 10.7 µg/mL; Stability of Vitamin Es in AB White (stored at 21-25° C., 390 days): 10.8 µg/mL; Stability of Vitamin Es in AB White (stored at 21-25° C., 420 days): 10.9 µg/mL; Stability of Vitamin Es in AB White (stored at 21-25° C., 450 days): 10.6 µg/mL; Stability of Vitamin Es in AB White (stored at 21-25° C., 480 days): 10.3 µg/mL; Stability of Vitamin Es in AB White (stored at 21-25° C., 510 days): 10.4 µg/mL; Stability of Vitamin Es in AB White (stored at 21-25° C., 540 days): 10.4 µg/mL; Stability of Vitamin Es in AB White (stored at 21-25° C., 570 days): 10.2 µg/mL
